Measured values taken from publication PMC9775652, “Concomitant Administration of Red Ginseng Extract with Lactic Acid Bacteria Increases the Plasma Concentration of Deglycosylated Ginsenosides in Healthy Human Subjects” (Biomolecules, 2022).
Like-named read-outs stand apart in the source and are kept apart here.

Assays:
LAB [1] = assay: In vitro RGE fermentation with LAB; assay type: in vitro ADME
Protocol: (§1) To identify the effects of LAB on ginsenoside metabolism, an in vitro fermentation study was performed according to the method of Jeon et al., with slight modifications. Briefly, RGE (10 mL, 1 pouch) and 2 g LAB (containing 1 billion CFU) were suspended in 10 mL autoclaved MRS broth (550 mg broth powder dissolved in 10 mL water). For the 15 ginsenosides, individual ginsenosides (10 μM each) and 2 g of LAB were suspended in 20 mL of autoclaved MRS broth (550 mg broth powder dissolved in 20 mL water). The mixture was incubated for 7 days in a shaking incubator at 37 °C and 300 rpm, and a 0.1 mL aliquot of the incubation mixture was collected on days 0, 3, 5, and 7. The incubation medium was diluted 100-fold with distilled water and stored at −80 °C to analyze ginsenosides using the LC-MS/MS system.
(§2) To measure the metabolic activity of ginsenosides, the formation rate of ginsenosides (pmol/day) was calculated by dividing the slope of the regression line by the amount of deglycosylated ginsenosides versus the incubation time plot by the initial concentration of individual ginsenosides.

[2] = cited from earlier work
[3] = Transport (permeability) of ginsenosides in CaCo-2 cell monolayers; assay type: in vitro ADME; conditions: human
Protocol: (§3) CaCo-2 cells (passage no 41–43) were seeded onto collagen-coated permeable support (1.0 μm pore size) in a 24-well plate at a density of 2.5 × 10^4 cells/insert and cultured for 21 days in Dulbecco’s modified eagle’s medium supplemented with 10% fetal bovine serum, 1% non-essential amino acids, and 1% penicillin-streptomycin at 37 °C in a humidified atmosphere (5% CO2/95% air). After confirming that the transepithelial electrical resistance (TEER) of the CaCo-2 cell monolayer was over 400 Ω·cm^2, Apical to basal (A to B) transport and B to A transport of ginsenosides using 50 µM, GRb1 was investigated as previously described. The same permeability study was performed using 50 µM GRb2, GRc, GRd, GRg3, GRh2, GF2, CK, PPD, GRe, GRf, GRg1, GRh1, GF1, or PPT.
(§4) For the transport study of ginsenosides in CaCo-2 cells and LLC-PK1-P-gp cells, the ginsenoside transport rate in the A to B or B to A directions was calculated from the slope of the regression line from the mean transported amounts versus time plot. The apparent permeability (Papp) was calculated using Equation (1). (1) Papp (×10^−6 cm/s)=transport rate (nmol/min)/concentration(μM)×area(cm^2)×60s
(§5) The efflux ratio was calculated by dividing the Papp of ginsenosides from the B to A direction by that from the A to B direction.

[4] = Pharmacokinetic study of ginsenosides in healthy humans after repeated oral RGE with or without LAB; assay type: in vivo, human
Protocol: A single-sequence study consisting of two periods was conducted on five healthy male subjects (body weight > 50 kg and age > 19 years) for 29 days. During the first period of the study (RGE treatment group), three pouches of RGE (30 mL, 104.1 mg of total ginsenosides) were administered to 5 subjects once daily for 14 days. On the 14th day, the subjects were admitted to the Clinical Trial Center of KNUH at 7 AM and underwent the last RGE administration at approximately 8–9 AM. Blood samples (approximately 3 mL) were collected at 0, 4, 6, 8, 10, 12, 13, 14, and 24 h after the last dose. A saline-locked angiocatheter was placed on the forearm of each subject’s hand. After discarding 1 mL of blood derived from the catheter, 3 mL of blood was drawn into a vacutainer tube containing heparin and centrifuged at 3000× g for 10 min. The supernatant plasma samples were stored at −80 °C until ginsenoside analysis.
In the second half of the study (RGE + LAB treatment group), 3 pouches of RGE (30 mL, 104.1 mg of total ginsenosides) and 1 pouch of LAB (1 billion CFU/2 g) were co-administered once daily for 14 days. On the […], the subjects were admitted to the Clinical Trial Center of KNUH at 7 AM and received the last red ginseng dose at approximately 8–9 AM. Blood samples (approximately 3 mL) were withdrawn at 0, 4, 6, 8, 10, 12, 13, 14, and 24 h intervals after the last dose and centrifuged at 3000× g for 10 min; the supernatant plasma samples were stored at −80 °C.
Briefly, to analyze GRb1, GRb2, GRc, GRd, GRe, GRf, GRg1, GRg3, GF1, and GF2, 400 μL of an internal standard (IS; 0.05 ng/mL berberine in methanol) was added to 100 μL of plasma. The mixture was vortexed for 15 min and centrifuged at 16,000× g for 5 min. After centrifugation, 400 μL of the supernatant was evaporated using a speed-dry vacuum concentrator (Christ, Osterode am Harz, Germany). The residue was reconstituted using 200 μL of 70% methanol supplemented with 0.1% formic acid, and a 10 μL aliquot was injected into the LC-MS/MS system. Chromatographic separation was performed using a Polar RP column (150 × 2.0 mm, 4.0 μm particle size; Phenomenex, Torrance, CA, USA) using a mobile phase consisting of 0.1% formic acid in water (phase A) and 0.1% formic acid in methanol (phase B). The following elution gradient was used: 69% of phase B for 0–2.0 min, 69–85% of phase B for 2.0–4.0 min, and 85–69% of phase B for 6.0–6.5 min. The flow rate was 0.27 mL/min.
The mixture was vortexed for 10 min and centrifuged at 16,000× g for 5 min. After centrifugation, the samples were frozen at −80 °C for 4 h. The upper layer was transferred to a clean tube and evaporated. The residue was reconstituted using 200 μL of 80% methanol supplemented with 0.1% formic acid, and a 10 μL aliquot was injected into the LC-MS/MS system. Chromatographic separation was performed using a Luna C18 column (150 × 2.0 mm, 3.0 μm particle size; Phenomenex, Torrance, CA, USA) and using a mobile phase consisting of water containing 0.1% formic acid: methanol containing 0.1% formic acid = 8:92 (v/v) at a flow rate of 0.15 mL/min.
The quantification of ginsenosides was carried out using multiple reaction monitoring in positive ionization mode, as previously described.
Finally, pharmacokinetic parameters were calculated using non-compartmental methods (WinNonlin version 5.1; Pharsight Co., Certara, NJ, USA). Statistical analysis was performed by Student’s t-test to compare the two groups using IBM SPSS Statistics for Windows (version 25.0; IBM Corp., Armonk, NY, USA). Differences were considered significant at p < 0.05.

CaCo-2 cells = assay: Transport (permeability) of ginsenosides in CaCo-2 cell monolayers; assay type: in vitro ADME; conditions: Caco-2
Protocol: as §3, §4, §5

P-gp = target: T1, P-gp (Homo sapiens, UniProt P08183); assay: Transport of ginsenosides in P-gp-overexpressing LLC-PK1-P-gp cells; assay type: in vitro ADME; conditions: LLC-PK1
T1 construct: host or cells: LLC-PK1-P-gp cells (passage no. 25–28)
T1 sequence (P08183 whole entry): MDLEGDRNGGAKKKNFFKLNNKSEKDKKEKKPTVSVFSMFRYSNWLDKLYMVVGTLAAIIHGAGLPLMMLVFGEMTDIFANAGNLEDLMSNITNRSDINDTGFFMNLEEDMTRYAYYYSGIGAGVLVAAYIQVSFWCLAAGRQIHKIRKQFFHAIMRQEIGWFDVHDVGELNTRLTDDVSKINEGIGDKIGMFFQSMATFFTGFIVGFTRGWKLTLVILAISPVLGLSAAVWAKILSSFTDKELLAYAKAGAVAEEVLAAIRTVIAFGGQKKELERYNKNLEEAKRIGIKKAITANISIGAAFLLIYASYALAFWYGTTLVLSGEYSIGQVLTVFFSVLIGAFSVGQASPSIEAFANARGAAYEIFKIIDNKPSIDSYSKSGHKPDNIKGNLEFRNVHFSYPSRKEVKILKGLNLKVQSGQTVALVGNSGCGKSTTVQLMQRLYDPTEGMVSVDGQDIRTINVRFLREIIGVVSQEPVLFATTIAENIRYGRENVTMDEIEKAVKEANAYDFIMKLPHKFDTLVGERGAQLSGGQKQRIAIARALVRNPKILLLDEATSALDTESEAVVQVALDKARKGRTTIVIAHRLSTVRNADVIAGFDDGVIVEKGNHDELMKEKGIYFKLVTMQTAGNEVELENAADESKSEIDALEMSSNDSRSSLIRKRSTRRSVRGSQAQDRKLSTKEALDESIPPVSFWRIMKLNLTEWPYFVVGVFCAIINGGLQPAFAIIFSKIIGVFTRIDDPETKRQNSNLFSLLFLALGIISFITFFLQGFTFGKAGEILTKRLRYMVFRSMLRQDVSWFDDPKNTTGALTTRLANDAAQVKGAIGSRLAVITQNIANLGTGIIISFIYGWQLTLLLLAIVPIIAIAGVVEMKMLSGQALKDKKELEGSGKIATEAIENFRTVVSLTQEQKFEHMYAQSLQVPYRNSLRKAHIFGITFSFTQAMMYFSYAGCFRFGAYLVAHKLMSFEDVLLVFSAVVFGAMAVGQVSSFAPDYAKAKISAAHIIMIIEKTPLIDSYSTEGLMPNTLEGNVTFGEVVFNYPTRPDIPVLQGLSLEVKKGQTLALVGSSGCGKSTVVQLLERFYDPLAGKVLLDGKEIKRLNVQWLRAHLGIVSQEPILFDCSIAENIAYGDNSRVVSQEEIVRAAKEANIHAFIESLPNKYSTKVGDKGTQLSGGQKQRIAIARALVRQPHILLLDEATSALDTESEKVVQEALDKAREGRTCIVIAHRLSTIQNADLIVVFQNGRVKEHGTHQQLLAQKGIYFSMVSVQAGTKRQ
Protocol: LLC-PK1-P-gp cells (passage no. 25–28) were seeded onto collagen-coated permeable support (1.0 μm pore size) in 24-well plates at a density of 2.5 × 10^4 cells/insert and grown for 5 days with TEER values of over 500 Ω·cm^2 [24]. The A to B transport and B to A transport of GRg3, GRh2, CK, PPD, GRg1, GRh1, and PPT (20 μM each) were measured as previously described. The concentration dependency in the B to A transport of GRh2, CK, PPD, and PPT was measured in the range of 6.25–200 μM for GRh2, CK, PPD, and PPT.
as §4, §5
To measure the kinetic parameters of the concentration dependence on the P-gp-mediated ginsenoside efflux, the ginsenoside transport rate in the B to A direction (ν) versus the ginsenoside concentration (S) plot was fitted in the Michaelis–Menten Equation (2) using Sigma Plot (version 12.0, Systat Software Inc. Chicago, IL, USA). (2) ν=Vmax×S/Km+S

LAB [5] = assay: Incubation of individual ginsenosides with LAB (metabolic pathway); assay type: in vitro ADME; conditions: individual ginsenoside 10 μM with LAB (1 billion CFU), 7 days; GF2 to CK, CK to PPD, GRg1 to GRh1; result in words
Protocol: as §1, §2

[6] = RGE incubated with LAB (1 billion CFU) for 7 days at 37 °C, result in words

SMILES	Relative abundance / metabolic activity following fermentation of RGE with LAB (LAB [1]; [6])	Relative abundance / metabolic activity following fermentation of RGE with LAB (LAB [1])	A to B Papp (CaCo-2 cells)	Cmax ([4]; human, in vivo, po)	MRT ([4]; human, in vivo, po)	Tmax ([4]; human, in vivo, po)	AUC ([4]; human, in vivo, po, 104.1 mg)	other results
CC(C)=CCC[C@](C)(O[C@@H]1O[C@H](CO[C@@H]2O[C@H](CO)[C@@H](O)[C@H](O)[C@H]2O)[C@@H](O)[C@H](O)[C@H]1O)[C@H]1CC[C@]2(C)[C@@H]1[C@H](O)C[C@@H]1[C@@]3(C)CC[C@H](O[C@@H]4O[C@H](CO)[C@@H](O)[C@H](O)[C@H]4O[C@@H]4O[C@H](CO)[C@@H](O)[C@H](O)[C@H]4O)C(C)(C)[C@@H]3CC[C@]12C [GRb1, ginsenoside Rb1]	marked decrease							Oral bioavailability (BA) ([2]; in rats): less than 5%; Papp A→B at 50 µM ([3]; CaCo-2 cell monolayers, 50 µM ginsenoside, read-out: A to B Papp): < 0.3 ×10⁻⁶ cm/s; Change of AUC / pharmacokinetic parameters by RGE and LAB co-administration ([4]; RGE + LAB group versus RGE group, humans, result in words): not different; Cmax ([4]; male, human, plasma, po, 104.1 mg total ginsenosides/day, RGE group, human plasma, RGE oral 14 days, mean ± SD, n = 5, read-out: Cmax): 7.1 ± 3.2 ng/mL; MRT ([4]; male, human, plasma, po, 104.1 mg total ginsenosides/day, RGE group, human plasma, RGE oral 14 days, mean ± SD, n = 5, read-out: MRT): 18.3 ± 1.1 h; Tmax ([4]; male, human, plasma, po, 104.1 mg total ginsenosides/day, RGE group, human plasma, RGE oral 14 days, mean ± SD, n = 5, read-out: Tmax): 5.3 ± 4.6 h; Cmax ([4]; male, human, plasma, po, RGE + LAB group, human plasma, oral 14 days, mean ± SD, n = 5, read-out: Cmax): 6.2 ± 2.9 ng/mL; MRT ([4]; male, human, plasma, po, RGE + LAB group, human plasma, oral 14 days, mean ± SD, n = 5, read-out: MRT): 16.9 ± 0.5 h; Tmax ([4]; male, human, plasma, po, RGE + LAB group, human plasma, oral 14 days, mean ± SD, n = 5, read-out: Tmax): 6.8 ± 1.1 h; AUC ([4]; male, RGE + LAB group, human plasma, RGE plus LAB (1 billion CFU/2 g) once daily oral 14 days, AUC 0 to 24 h, mean ± SD, n = 5, read-out: AUC): 164 ± 77.3 ng·h/mL; AUC ([4]; male, RGE group, human plasma, RGE once daily oral 14 days (104.1 mg total ginsenosides/day), AUC 0 to 24 h, mean ± SD, n = 5, read-out: AUC): 185 ± 80.6 ng·h/mL
CC(C)=CCC[C@](C)(O[C@@H]1O[C@H](CO)[C@@H](O)[C@H](O)[C@H]1O)[C@H]1CC[C@]2(C)[C@@H]1[C@H](O)C[C@@H]1[C@@]3(C)CC[C@H](O[C@@H]4O[C@H](CO)[C@@H](O)[C@H](O)[C@H]4O[C@@H]4O[C@H](CO)[C@@H](O)[C@H](O)[C@H]4O)C(C)(C)[C@@H]3CC[C@]12C [GRd]		marked decrease	below 0.3 × 10^−6 cm/s	2.1 ± 0.9 ng/mL	18.2 ± 1.4 h	7.5 ± 5.8 h	37.9 ± 12.6 ng·h/mL	Oral bioavailability (BA) ([2]; rat, in vivo, po): less than 5%
CC(C)=CCC[C@](C)(O[C@@H]1O[C@H](CO)[C@@H](O)[C@H](O)[C@H]1O)[C@H]1CC[C@]2(C)[C@@H]1[C@H](O)C[C@@H]1[C@@]3(C)CC[C@H](O)C(C)(C)[C@@H]3[C@@H](O[C@@H]3O[C@H](CO)[C@@H](O)[C@H](O)[C@H]3O[C@@H]3O[C@@H](C)[C@H](O)[C@@H](O)[C@H]3O)C[C@]12C [GRe]		marked decrease	below 0.3 × 10^−6 cm/s					
CC(C)=CCC[C@](C)(O)[C@H]1CC[C@]2(C)[C@@H]1[C@H](O)C[C@@H]1[C@@]3(C)CC[C@H](O[C@@H]4O[C@H](CO)[C@@H](O)[C@H](O)[C@H]4O[C@@H]4O[C@H](CO)[C@@H](O)[C@H](O)[C@H]4O)C(C)(C)[C@@H]3CC[C@]12C [GRg3]		remained unchanged	below 0.3 × 10^−6 cm/s	7.2 ± 4.8 ng/mL	7.6 ± 2.8 h	7.2 ± 3.0 h	94.1 ± 50.0 ng·h/mL	A to B permeability (P-gp): 0.07±0.01 × 10^−6 cm/s; B to A permeability (P-gp): 0.07±0.01 × 10^−6 cm/s
CC(C)=CCCC(C)(OC1OC(CO)C(O)C(O)C1O)C1CCC2(C)C1C(O)CC1C3(C)CCC(OC4OC(CO)C(O)C(O)C4O)C(C)(C)C3CCC12C (centres unmarked) [GF2]	remained unchanged							Papp A→B at 50 µM ([3]; Caco-2): < 0.3 ×10⁻⁶ cm/s; LAB-mediated deglycosylation (formation of deglycosylated ginsenoside from the incubated ginsenoside) (LAB [5]): negligible
CC(C)=CCC[C@](C)(O[C@@H]1O[C@H](CO[C@@H]2O[C@@H](CO)[C@H](O)[C@H]2O)[C@@H](O)[C@H](O)[C@H]1O)[C@H]1CC[C@]2(C)[C@@H]1[C@H](O)C[C@@H]1[C@@]3(C)CC[C@H](O[C@@H]4O[C@H](CO)[C@@H](O)[C@H](O)[C@H]4O[C@@H]4O[C@H](CO)[C@@H](O)[C@H](O)[C@H]4O)C(C)(C)[C@@H]3CC[C@]12C [GRc]		marked decrease	below 0.3 × 10^−6 cm/s	5.1 ± 2.4 ng/mL	18.0 ± 1.2 h	6.2 ± 4.0 h	118.4 ± 58.2 ng·h/mL	
